Reference: publication PMC10280043 (RSC Advances, 2023)

Assays:
[1] = molecular target: hCAXII (Homo sapiens, UniProt O43570); assay: Carbonic anhydrase inhibition assay, hCAXII; format: biochemical
[2] = molecular target: hCAII (Homo sapiens, UniProt P00918); assay: Carbonic anhydrase inhibition assay, hCAII; format: biochemical
[3] = molecular target: hCAIX (Homo sapiens, UniProt Q16790); assay: biochemical

hCAXII, sequence (O43570 25-354): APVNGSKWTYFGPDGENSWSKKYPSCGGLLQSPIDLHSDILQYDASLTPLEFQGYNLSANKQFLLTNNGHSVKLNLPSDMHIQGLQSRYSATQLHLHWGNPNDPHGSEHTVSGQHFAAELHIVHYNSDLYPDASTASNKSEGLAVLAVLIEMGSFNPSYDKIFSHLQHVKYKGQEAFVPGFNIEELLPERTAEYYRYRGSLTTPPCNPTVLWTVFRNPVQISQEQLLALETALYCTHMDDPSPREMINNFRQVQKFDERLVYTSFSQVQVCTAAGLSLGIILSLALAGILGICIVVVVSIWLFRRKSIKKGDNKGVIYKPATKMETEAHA

Structure (SMILES)	IC50 [1]	IC50 [2]	IC50 [3]
NS(=O)(=O)c1ccc(N2N=C(c3ccccc3O)CC2c2ccc(Cl)cc2)cc1 (stereo not drawn) [4c, 4-(5-(4-Chlorophenyl)-3-(2-hydroxyphenyl)-4,5-dihydro-1H-pyrazol-1-yl)benzene sulfonamide]	2870 ± 20 nM	1200 ± 400 nM	7080 ± 400 nM
Cc1ccc(C2CC(c3cc(Br)ccc3O)=NN2c2ccc(S(N)(=O)=O)cc2)cc1 (stereo not drawn) [4f, 4-(3-(5-Bromo-2-hydroxyphenyl)-5-(p-tolyl)-4,5-dihydro-1H-pyrazol-1-yl)benzene sulfonamide]	6970 ± 140 nM	–	240 ± 80 nM
COc1cccc(C2CC(c3cc(Br)ccc3O)=NN2c2ccc(S(N)(=O)=O)cc2)c1 (stereo not drawn) [4g, 4-(3-(5-Bromo-2-hydroxyphenyl)-5-(3-methoxyphenyl)-4,5-dihydro-1H-pyrazol-1-yl)benzene sulfonamide]	120 ± 70 nM	8260 ± 990 nM	5280 ± 690 nM
COc1cccc(C2CC(c3cc(Cl)cc(Cl)c3O)=NN2c2ccc(S(N)(=O)=O)cc2)c1 (stereo not drawn) [4i, 4-(3-(3,5-Dichloro-2-hydroxyphenyl)-5-(3-methoxyphenyl)-4,5-dihydro-1H-pyrazol-1-yl)benzene sulfonamide]	1600 ± 10 nM	8150 ± 190 nM	4510 ± 220 nM
COc1ccccc1C1CC(c2ccc(F)cc2O)=NN1c1ccc(S(N)(=O)=O)cc1 (stereo not drawn) [4k, 4-(3-(4-Fluoro-2-hydroxyphenyl)-5-(2-methoxyphenyl)-4,5-dihydro-1H-pyrazol-1-yl)benzene sulfonamide]	1000 ± 90 nM	–	–

The remaining compounds from weak to strong by IC50 [1], led by results:

IC50 [1]	IC50 [2]	IC50 [3]	Structure (SMILES)
380 ± 100 nM	17200 ± 1770 nM	260 ± 40 nM	NS(=O)(=O)c1ccc(N2N=C(c3cc(Br)ccc3O)CC2c2ccc(Br)cc2)cc1 (stereo not drawn) [4h, 4-(3-(5-Bromo-2-hydroxyphenyl)-5-(4-bromophenyl)-4,5-dihydro-1H-pyrazol-1-yl)benzene sulfonamide]
280 ± 50 nM	390 ± 50 nM	150 ± 70 nM	Cc1ccc(C2CC(c3ccc(F)cc3O)=NN2c2ccc(S(N)(=O)=O)cc2)cc1 (stereo not drawn) [4j, 4-(3-(4-Fluoro-2-hydroxyphenyl)-5-(p-tolyl)-4,5-dihydro-1H-pyrazol-1-yl)benzene sulfonamide]
